Tests used:
human pDCs = test: Viability of human pDCs (Fixable Viability Dye, flow cytometry); type: cell-based; conditions: 24h of culture
Description: (§1) pDCs were isolated from fresh peripheral blood mononuclear cells (PBMCs) by magnetic selection. Cell viability, phenotype and intracellular cytokine analyses were performed with flow cytometry. ELISA was used to analyze the cytokine concentration in supernatants.
First, the effect of ATO on the viability of human pDCs was investigated. […] (% of living pDCs: 56.36±6.44% with 0µM vs 32.02±7.12% with 1µM of ATO, p=0.039)

[1] = system: pDCs after TLR9 activation; test: Cytokine and chemokine secretion by pDCs after TLR9 activation (ELISA of supernatants); type: cell-based, human; conditions: 0.5µM of ATO, 24h, n=4
Description: as §1
Then, the effect of low dose ATO (corresponding to a non-lethal, therapeutic dose) on cytokine and chemokine secretion by pDCs after TLR9 activation was studied. ELISA test of supernatants of sorted pDCs cultured with ATO for 24h were studied (n=4).

activated pDCs = test: Phenotype of activated pDCs (flow cytometry of maturation markers); type: cell-based, human
Description: as §1
Given the above results, it was addressed whether activated pDCs phenotype could be similarly impacted by ATO treatment.

[2] = system: CD4+ naïve T cells co-cultured with ATO-treated activated pDCs; test: Mixed lymphocyte reaction (MLR) of pDCs and CD4+ naïve T cells: T cell proliferation; type: cell-based, human; conditions: pDCs treated with 0.5µM of ATO, n=4; 0µM control 44.97±2.53%
Description: as §1
In order to evaluate whether ATO can influence the capability of pDCs to activate T cells, mixed lymphocyte reaction (MLR) of pDCs and CD4+ naïve T cells were performed.

naïve CD4+ T cells = test: pDC capacity to polarize naïve CD4+ T cells (intracellular staining and ELISA of MLR supernatants); type: cell-based, human; conditions: pDCs previously treated with ATO
Description: as §1
In addition, the effect of ATO treatment on pDC capacity to polarize naïve CD4+ T cells was assessed.

[3] = 24h culture with non-lethal doses of ATO

For arsenic trioxide [ATO], the “% of living pDCs” value (human pDCs; 1µM of ATO, 0µM control 56.36±6.44%, p=0.039) was 32.02±7.12%, the “ATO concentration that significantly decreased viability of both non-activated and activated pDCs” value (human pDCs) was ≥ 1 µM and the IL-6 secretion ([1]; 0µM control 2.31 ±0.39ng/ml, p=0.029) was 1.66 ± 0.32 ng/mL. The TNF-α secretion ([1]; 0µM control 6.23±0.92ng/ml, p=0.005) was 3.99 ± 0.79 ng/mL, the CXCL10 secretion ([1]; 0µM control 13.06±0.98ng/ml, p=0.036) was 9.44 ± 0.97 ng/mL and the IFN-α secretion ([1]; 0µM control 53.24±6.61ng/ml, p=0.004) was 25.81 ± 7.70 ng/mL. The “PD-L1+ pDCs” value (activated pDCs; 0.5µM of ATO, 24h, n=4, 0µM control 61.44±2.37%, p=0.005) was 73.27 ±3.72%, the “% of CD86+ and CCR7+ pDCs” value (activated pDCs; [3]) was “significant decrease” and the “relative fluorescence intensity (RFI) of CD80, CD86, and HLA-DR expressions” value (activated pDCs; [3]) was “significant decrease”. For the same substance, the “RFI for PD-L1 expression” value (activated pDCs; 24h culture with non-lethal doses of ATO, p=0.09) was “increase”, the “% of proliferating T cells” value [2] was 37.98±2.11% and the “IL-10 concentration in the supernatants of MLR” value (naïve CD4+ T cells; ELISA) was “no change”. For the same substance, the “IL-17, IL-22 concentrations in the supernatants of MLR” value (naïve CD4+ T cells; ELISA) was “significant decrease”, the “IL-22 positive cells in T cells” value (naïve CD4+ T cells; intracellular staining, untreated 11.67%) was 7.22% and the “IFN-γ positive cells in T cells” value (naïve CD4+ T cells; intracellular staining, untreated 41.13%) was 29.09%. For the same substance, the “TNF-α positive cells in T cells” value (naïve CD4+ T cells; intracellular staining, untreated 47.10%) was 35.40%.

From EP3459551A1, “USE OF ARSENIC TRIOXIDE IN THE PREVENTION OR TREATMENT OF DISEASES ASSOCIATED WITH TYPE I […] ACTIVATION” (Medsenic, priority 2017, dated 2019)
